Here are results for one compound from patent publication US8283376B2, “Use of substituted 2-aminotetralins for preventive treatment of parkinson's disease” (UCB Pharma GmbH, priority 2003, dated 2012).

The test system of assay [1] is dopamine transporters in the striatum. As to the kind of experiment: Sub-acute MPTP model, dopamine transporter density in the striatum ([125I]PE2I binding). Format: in vivo, mice. How it is done:
Groups 1 to 7 were treated as follows: Group 1: untreated control group; Group 2: control group treated with a vehicle solution for rotigotine and MPTP; Group 3: MPTP treatment; Group 4: MPTP treatment plus rotigotine 0.3 mg/kg; Group 5: MPTP treatment plus rotigotine 1.0 mg/kg; Group 6: MPTP treatment plus rotigotine 3.0 mg/kg; Group 7: treatment solely with rotigotine (3.0 mg/kg).
(§1) The 2-aminotetralins according to the invention, in particular rotigotine, thereby display a neuroprotective effect in a mouse model of Parkinson's disease: Following the acute administration of MPTP, which causes Parkinson's syndrome in both humans and monkeys, the number of the degenerating neurones in the acute phase was measured on the one hand (Table 1) and the functional integrity of the striatum in the sub-acute phase was ascertained on the other by determining the density of the dopamine transporter in the terminal nerve endings (FIGS. 1 and 2).
For the purpose of intoxication, 80 mg/kg of the neurotoxin 1-methyl-4-phenyl-1,2,3,6-tetrahydro-pyridine (MPTP) were administered to mice (in doses of 20 mg/kg at two-hour intervals, groups 3 to 6 in FIGS. 1 and 2), which led to the degeneration of approximately 50 to 60% of the neurones of the substantia nigra (maximum degeneration in group 3 in FIGS. 1 and 2). […]

Assay [2] has as its system neurones of the substantia nigra. As to the kind of experiment: Acute MPTP model (including apoptosis), FluoroJade staining of degenerating neurones. Format: in vivo. The note with it: mouse; for No. of degenerating neurones: FluoroJade staining. How it is done: as §1
For the purpose of intoxication, 80 mg/kg of the neurotoxin 1-methyl-4-phenyl-1,2,3,6-tetrahydro-pyridine (MPTP) were administered to mice (in doses of 20 mg/kg at two-hour intervals), which led to the degeneration of approximately 50 to 60% of the neurones of the substantia nigra. Approximately 16 hours beforehand, rotigotine was administered in doses of 0.3, 1 or 3 mg/kg respectively, as the so-called “slow-release formulation”. Diffusion and absorption latencies led to rotigotine then being optimally available when MPTP was administered. The animals were killed after 24 hours and their brains fixed. The brain sections were stained with FluoroJade to identify degenerating cells. The immunohistochemical marking of tyrosine-hydroxylase helped to identify dopaminergic neurones.

The subject of assay [3] is monkeys (macaques) injected with MPTP. As to the kind of experiment: Progressive MPTP primate model of morbus Parkinson (pilot study). The format is in vivo. The procedure: In the model used, which reflects the progressive course of morbus Parkinson in primates, monkeys (macaques) were injected with subliminal toxic doses of MPTP for several days. Parkinson's symptoms developed in the model over a period of approximately 2 weeks. As soon as a certain level of damage had been reached, rotigotine was injected daily in a formulation that produced a continuous plasma level over 24 hours. The MPTP injections were stopped as soon as the motor activity had been reduced to a certain extent (approximately 5 days later). The behavior of the animals was assessed on a daily basis. […] A group of animals was killed at the end of both the rotigotine administration and the clearance phase, and the condition of the basal ganglia was histologically and biochemically examined.

The subject of assay [4] is patients with Parkinson's disease. The note with it: cited from earlier work.

For `CCCN(CCc1cccs1)C1CCc2c(O)cccc2C1` (single isomer, unassigned; (-)) [rotigotine, (−)-5,6,7,8-tetrahydro-6-[propyl[2-(2-thienyl)ethyl]amino]-1-naphthol], the “Survival of the neurones and their nerve endings (dopamine transporter density in the striatum)” value in assay [1] (mice, MPTP 80 mg/kg, rotigotine 0.3, 1 or 3 mg/kg daily for 7 days, slow-release formulation) was “improved the survival of the neurones and their nerve endings depending on the dosage”. Also, in assay [1] (mouse, sub-acute phase after MPTP), the “Dopaminergic innervation of the striatum (density of the dopamine transporter)” value is “almost completely maintained or restored”. In addition, the “No. of degenerating neurones” value in assay [2] (MPTP intoxication + rotigotine 0.3 mg/kg) is 66.7; in assay [2] (MPTP intoxication + rotigotine 1.0 mg/kg) it was 76.8; in assay [2] (MPTP intoxication + rotigotine 3.0 mg/kg), 34.9; in assay [2] (MPTP-vehicle + rotigotine 3.0 mg/kg (no MPTP)) it was 3.8. The “Staining of tyrosine hydroxylase (dopaminergic neurones)” value in assay [2] (acute MPTP model, 24 hours, treated vs untreated animals) was “did not display any differences between the treated and untreated animals”. Besides, in assay [2] (acute MPTP model, versus MPTP intoxication), the “Reduction of the number of degenerating neurones following application of rotigotine” value was “approximately 50%”. In addition, the “Number of degenerating neurones in the mesencephalon” value in assay [2] (acute phase after MPTP) was “reduced”. In addition, in assay [3] (compared to untreated animals), the “Density of the nerve endings in the striatum” value is “significantly increased”. In assay [3] (daily rotigotine injections, during treatment and in the following clearance phase), the “Motor activity of the animals” value is given as “clearly improved”. Besides, the “Content of pre-pro-enkephalin (basal ganglia)” value in assay [3] (following treatment and the clearance phase) was “showed a tendency towards normalisation”. Moreover, in assay [4] (patients with pronounced dyskinesias, Metman et al. (2001)), the Dyskinesias result is “improved”. Further, in assay [4] (transdermal administration, patients with Parkinson's disease, WO 02/089777), the “UPDRS (Unified Parkinson's Disease Rating Scale) score” value is given as “improvement”.
